Assay results reported in patent US9029337B2, “Modulation of factor 7 expression” (Isis Pharmaceuticals, Inc., priority 2007, dated 2015).
Strand notation (5' to 3'): a small letter for the sugar, then the base; units joined by * are phosphorothioate-linked, units joined directly phosphodiester-linked; [ ] holds rarer units or linkages, { } end groups; capitals alone tell only the bases. e = 2'-O-(2-methoxyethyl) (MOE); [5mC] = 5-methylcytosine; d = 2'-deoxy (DNA)

Tested on: human Factor 7 mRNA
Assay: Antisense inhibition of human Factor 7 with short (14-mer) oligonucleotides in HepB3 cells, electroporation 1,000 nM
Type: cell-based
Settings: electroporation, 1,000 nM antisense oligonucleotide, approximately 24 hours, Factor 7 mRNA relative to untreated control cells
Source text: Short antisense oligonucleotides (shortmers) were designed to target a Factor 7 nucleic acid. The shortmers in Table 17 were designed as 2-10-2 MOE gapmers. The gapmers are 14 nucleotides in length, wherein the central gap segment is comprised of 10 2′-deoxynucleotides and is flanked on both sides (in the 5′ and 3′ directions) by wings comprising 2 nucleotides each. Each nucleotide in the 5′ wing segment and each nucleotide in the 3′ wing segment has a 2′-MOE modification. The internucleoside linkages throughout each gapmer are phosphorothioate (P═S) linkages. All cytidine residues throughout each gapmer are 5-methylcytidines.
Shortmers were evaluated for their ability to reduce human Factor 7 mRNA in HepB3 cells and compared with one 5-10-5 chimeric oligonucleotide from Table 16, ISIS 407939. HepB3 cells at a density of 20,000 cells per well in a 96-well plate were transfected using electroporation with 1,000 nM of antisense oligonucleotide. After a treatment period of approximately 24 hours, RNA was isolated from the cells and Factor 7 mRNA levels were measured by real-time RT-PCR, as described herein. Factor 7 mRNA levels were adjusted according to total RNA content as measured by RIBOGREEN®. Results are presented in Table 17 as percent inhibition of Factor 7 mRNA, relative to untreated control cells. ISIS 407939 is the first oligonucleotide in Table 17 to which the shortmers were compared, and is marked by an asterisk (*).

| Substance | % Inhibition |
| --- | --- |
| 435645 (antisense eG*eG*dA*dG*d[5mC]*dT*dG*dG*dT*d[5mC]*d[5mC]*dT*eT*eG) [compound 435645] | 44% |
| 435646 (antisense eT*eA*dG*dG*dA*d[5mC]*dT*dG*dG*dA*dG*d[5mC]*eT*eG) [compound 435646] | 13% |
| 435647 (antisense eA*eG*dA*dT*dA*dT*dA*dG*dG*dA*d[5mC]*dT*eG*eG) [compound 435647] | 0% |
| 435648 (antisense eG*eA*dA*dG*d[5mC]*dA*dG*dA*dT*dA*dT*dA*eG*eG) [compound 435648] | 0% |
| 435649 (antisense eA*eG*dG*d[5mC]*dA*dG*dA*dA*dG*d[5mC]*dA*dG*eA*eT) [compound 435649] | 21% |
| 435650 (antisense e[5mC]*e[5mC]*dG*dG*d[5mC]*d[5mC]*d[5mC]*dT*d[5mC]*dG*dA*dA*eG*eG) [compound 435650] | 6% |
| 435651 (antisense eA*e[5mC]*dA*dG*dT*dT*d[5mC]*d[5mC]*dG*dG*d[5mC]*d[5mC]*e[5mC]*eT) [compound 435651] | 71% |
| 435652 (antisense e[5mC]*eT*dG*dG*dT*d[5mC]*dA*dT*d[5mC]*d[5mC]*dT*dT*eG*eT) [compound 435652] | 48% |
| 435653 (antisense eA*eT*d[5mC]*dA*dG*d[5mC]*dT*dG*dG*dT*d[5mC]*dA*eT*e[5mC]) [compound 435653] | 32% |
| 435654 (antisense eG*e[5mC]*d[5mC]*dG*dT*dT*d[5mC]*dT*d[5mC]*dG*dT*dT*e[5mC]*eA) [compound 435654] | 71% |
| 435655 (antisense eA*e[5mC]*dA*dG*d[5mC]*d[5mC]*dG*d[5mC]*d[5mC]*dG*dT*dT*e[5mC]*eT) [compound 435655] | 49% |
| 435656 (antisense eA*e[5mC]*dT*dG*d[5mC]*dT*d[5mC]*dA*d[5mC]*dA*dG*d[5mC]*e[5mC]*eG) [compound 435656] | 58% |
| 435657 (antisense eG*e[5mC]*dA*dG*dT*dA*d[5mC]*dT*dG*d[5mC]*dT*d[5mC]*eA*e[5mC]) [compound 435657] | 69% |
| 435658 (antisense eT*e[5mC]*dA*d[5mC]*dT*dG*d[5mC]*dA*dG*dT*dA*d[5mC]*eT*eG) [compound 435658] | 60% |
| 435659 (antisense eT*eA*d[5mC]*d[5mC]*d[5mC]*d[5mC]*dT*d[5mC]*dG*dT*dG*dG*e[5mC]*eA) [compound 435659] | 18% |
| 435660 (antisense e[5mC]*e[5mC]*dG*dT*d[5mC]*dT*dG*d[5mC]*d[5mC]*dA*dG*d[5mC]*eA*eG) [compound 435660] | 58% |
| 435661 (antisense eG*eG*dA*d[5mC]*dA*d[5mC]*d[5mC]*d[5mC]*d[5mC]*dG*dT*d[5mC]*eT*eG) [compound 435661] | 18% |
| 435662 (antisense eT*eG*dG*dA*dT*dA*dT*dT*d[5mC]*dA*dA*d[5mC]*eT*eG) [compound 435662] | 19% |
| 435663 (antisense e[5mC]*e[5mC]*dA*d[5mC]*dA*dT*dG*dG*dA*dT*dA*dT*eT*e[5mC]) [compound 435663] | 50% |
| 435664 (antisense eT*eT*dT*dT*dT*d[5mC]*d[5mC]*dA*d[5mC]*dA*dT*dG*eG*eA) [compound 435664] | 4% |
| 435665 (antisense eA*eG*dG*dT*dA*dT*dT*dT*dT*dT*d[5mC]*d[5mC]*eA*e[5mC]) [compound 435665] | 0% |
| 435666 (antisense eG*eG*dT*dT*dT*dG*d[5mC]*dT*dG*dG*d[5mC]*dA*eT*eT) [compound 435666] | 71% |
| 435667 (antisense eA*eA*dT*dT*d[5mC]*dG*dG*d[5mC]*d[5mC]*dT*dT*dG*eG*eG) [compound 435667] | 16% |
| 435668 (antisense eT*eG*d[5mC]*d[5mC]*dA*dT*dG*dG*dA*d[5mC]*dA*d[5mC]*eT*e[5mC]) [compound 435668] | 75% |
| 435669 (antisense eG*eG*dA*d[5mC]*d[5mC]*dT*dG*d[5mC]*d[5mC]*dA*dT*dG*eG*eA) [compound 435669] | 36% |
| 435670 (antisense e[5mC]*eA*dA*d[5mC]*dA*dG*dG*dA*d[5mC]*d[5mC]*dT*dG*e[5mC]*e[5mC]) [compound 435670] | 47% |
| 435671 (antisense eT*e[5mC]*dA*d[5mC]*d[5mC]*dA*dA*d[5mC]*dA*dA*d[5mC]*dA*eG*eG) [compound 435671] | 28% |

| Substance | % Inhibition |
| --- | --- |
| 435672 (antisense eA*e[5mC]*d[5mC]*d[5mC]*dA*dG*dA*dT*dG*dG*dT*dG*eT*eT) [compound 435672] | 12% |
| 435673 (antisense eA*eG*dA*d[5mC]*d[5mC]*dA*d[5mC]*d[5mC]*d[5mC]*dA*dG*dA*eT*eG) [compound 435673] | 34% |
| 435674 (antisense eA*eA*dA*d[5mC]*dA*dG*dT*dG*dG*dG*d[5mC]*d[5mC]*eG*e[5mC]) [compound 435674] | 34% |
| 435675 (antisense eT*eG*dT*d[5mC]*dG*dA*dA*dA*d[5mC]*dA*dG*dT*eG*eG) [compound 435675] | 24% |
| 435676 (antisense eG*eA*dT*dT*dT*dT*dG*dT*d[5mC]*dG*dA*dA*eA*e[5mC]) [compound 435676] | 11% |
| 435677 (antisense eG*eT*dG*d[5mC]*dT*d[5mC]*dG*d[5mC]*d[5mC]*d[5mC]*dA*dG*e[5mC]*eA) [compound 435677] | 60% |
| 435678 (antisense eA*eG*dG*dT*d[5mC]*dG*dT*dG*d[5mC]*dT*d[5mC]*dG*e[5mC]*e[5mC]) [compound 435678] | 67% |
| 435679 (antisense e[5mC]*eG*d[5mC]*dT*dG*dA*dG*dG*dT*d[5mC]*dG*dT*eG*e[5mC]) [compound 435679] | 62% |
| 435680 (antisense eG*eT*dG*d[5mC]*dT*d[5mC]*dG*d[5mC]*dT*dG*dA*dG*eG*eT) [compound 435680] | 52% |
| 435681 (antisense eA*eT*dG*dA*d[5mC]*d[5mC]*dT*dG*d[5mC]*dG*d[5mC]*d[5mC]*eA*e[5mC]) [compound 435681] | 40% |
| 435682 (antisense eG*eG*dA*dT*dG*dA*dT*dG*dA*d[5mC]*d[5mC]*dT*eG*e[5mC]) [compound 435682] | 36% |
| 435683 (antisense eA*eT*dG*dT*d[5mC]*dG*dT*dG*dG*dT*dT*dG*eG*eT) [compound 435683] | 3% |
| 435684 (antisense eA*eG*d[5mC]*dA*dG*d[5mC]*dG*d[5mC]*dG*dA*dT*dG*eT*e[5mC]) [compound 435684] | 56% |
| 435685 (antisense eA*eG*dG*dA*d[5mC]*d[5mC]*dA*d[5mC]*dG*dG*dG*d[5mC]*eT*eG) [compound 435685] | 40% |
| 435686 (antisense e[5mC]*eA*dG*dT*dG*dA*dG*dG*dA*d[5mC]*d[5mC]*dA*e[5mC]*eG) [compound 435686] | 31% |
| 435687 (antisense eA*eT*dG*dG*dT*d[5mC]*dA*dG*dT*dG*dA*dG*eG*eA) [compound 435687] | 7% |
| 435688 (antisense eA*e[5mC]*d[5mC]*dA*d[5mC]*dA*dT*dG*dG*dT*d[5mC]*dA*eG*eT) [compound 435688] | 0% |
| 435689 (antisense eT*eT*d[5mC]*dG*dG*dG*d[5mC]*dA*dG*dG*d[5mC]*dA*eG*eA) [compound 435689] | 23% |
| 435690 (antisense eG*eT*d[5mC]*d[5mC]*dG*dT*dT*d[5mC]*dG*dG*dG*d[5mC]*eA*eG) [compound 435690] | 55% |
| 435691 (antisense e[5mC]*eA*dG*d[5mC]*d[5mC]*dG*d[5mC]*dT*dG*dA*d[5mC]*d[5mC]*eA*eA) [compound 435691] | 25% |
| 435692 (antisense e[5mC]*eG*dG*dT*d[5mC]*d[5mC]*dA*dG*d[5mC]*dA*dG*d[5mC]*eT*eG) [compound 435692] | 32% |
| 435693 (antisense eG*eG*d[5mC]*dA*dG*dT*d[5mC]*d[5mC]*dT*dG*dG*dG*eT*e[5mC]) [compound 435693] | 43% |
| 435694 (antisense e[5mC]*eT*dG*d[5mC]*dA*dG*dG*d[5mC]*dA*dG*dT*d[5mC]*e[5mC]*eT) [compound 435694] | 39% |
| 435695 (antisense eG*eA*d[5mC]*dT*dG*d[5mC]*dT*dG*d[5mC]*dA*dG*dG*e[5mC]*eA) [compound 435695] | 48% |
| 435696 (antisense e[5mC]*eA*dG*dA*dA*d[5mC]*dA*dT*dG*dT*dA*d[5mC]*eT*e[5mC]) [compound 435696] | 10% |
| 435697 (antisense eA*eG*dT*dA*dG*d[5mC]*d[5mC]*dG*dG*d[5mC]*dA*d[5mC]*eA*eG) [compound 435697] | 53% |
| 435698 (antisense e[5mC]*e[5mC]*dT*dT*dG*d[5mC]*dA*dG*dG*dA*dG*dT*e[5mC]*e[5mC]) [compound 435698] | 61% |
